The results in this text go back to patent US20260256714A1 (priority 2022, published 2026).

pIC50: −log10 of the molar value.

In assay [1] the target is T1, glucocorticoid receptor (Homo sapiens, UniProt P04150).
T1 sequence (P04150 1-777): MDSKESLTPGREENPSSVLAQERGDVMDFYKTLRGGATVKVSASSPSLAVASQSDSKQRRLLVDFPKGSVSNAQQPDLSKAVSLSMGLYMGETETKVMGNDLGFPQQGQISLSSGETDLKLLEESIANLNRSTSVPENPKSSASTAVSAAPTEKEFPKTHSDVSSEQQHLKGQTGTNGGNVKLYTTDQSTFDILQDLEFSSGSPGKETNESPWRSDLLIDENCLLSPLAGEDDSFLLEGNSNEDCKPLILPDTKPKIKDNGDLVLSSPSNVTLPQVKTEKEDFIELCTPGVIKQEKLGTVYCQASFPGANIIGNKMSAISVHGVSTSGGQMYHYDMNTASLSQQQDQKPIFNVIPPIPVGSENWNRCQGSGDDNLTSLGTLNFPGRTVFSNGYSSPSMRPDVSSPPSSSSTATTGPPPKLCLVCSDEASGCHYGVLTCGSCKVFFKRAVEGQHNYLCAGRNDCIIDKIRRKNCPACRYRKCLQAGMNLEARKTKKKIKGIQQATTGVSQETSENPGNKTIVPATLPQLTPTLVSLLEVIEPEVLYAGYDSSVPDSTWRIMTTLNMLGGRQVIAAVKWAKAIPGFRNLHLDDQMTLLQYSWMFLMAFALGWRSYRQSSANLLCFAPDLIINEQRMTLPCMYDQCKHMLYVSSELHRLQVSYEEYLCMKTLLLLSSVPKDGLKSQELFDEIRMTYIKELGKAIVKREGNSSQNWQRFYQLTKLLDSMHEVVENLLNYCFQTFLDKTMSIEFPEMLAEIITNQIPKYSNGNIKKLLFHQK
As to the kind of experiment: fluorescence polarization competition assay (POLARSCREEN Glucocorticoid Receptor Competitor Assay Kit, Red). In kind it is binding. Here is the method:
The principle of the assay is to determine the binding affinity of a small molecule compound to glucocorticoid receptor by measuring the decrease in polarization caused by the failure of the fluormone tracer to bind to the glucocorticoid receptor in the presence of a small molecule compound that competitively binds to the glucocorticoid receptor.
The excitation wavelength used for the measurement was 535 nm, and the emission wavelength was 590 nm. This experiment was performed three times using the same method and the average value was calculated. A dose-response curve was derived using the measured values, and the IC50 value was calculated by finding the concentration of the sample corresponding to half of the highest measured value.
On the technique in general: Polarisation of emitted light reports the rotation of a fluorescent probe.

For assay [2], the system named is intracellular glucocorticoid receptor. The assay is described as follows: luciferase assay in GR-GAL4 Reporter (Luc)-HEK293 cells. In kind it is cell-based. To be noted: different concentrations, 1 hour before dexamethasone 20 nM, 24 hours incubation. Here is the method: In this Example, transfected cells GR-GAL4 Reporter (Luc)-HEK293 (BPS Bioscience, USA) containing a recombinant gene in which luciferase is recombined into the promoter site of GRE were used. Transformed cells were seeded at 30,000 cells per well in 96 wells and stabilized for 16 hours. […] After 1 hour, the cells were treated with dexamethasone, a glucocorticoid agonist, at a concentration of 20 nM and incubated for 24 hours. 100 μL of ONE-STEP™ Luciferase Assay System (BPS Bioscience, USA) was added per well and reacted for 10 minutes, and then luminescence was measured using SpectraMax iD3 (Molecular Devices, USA).

The test system of assay [3] is 3T3-L1 cells. The assay is described as follows: Oil Red O staining of MDI-differentiated 3T3-L1 preadipocytes (fat accumulation). To be noted: 0.5 or 1 μM every 48 hours, 6 days of MDI differentiation. In kind it is cell-based.
Experimental: To differentiate 3T3-L1 cells grown to a confluent state into adipocytes, they were cultured in DMEM medium supplemented with MDI {0.5 mM isobutyl-methylxanthine, 1 μM dexamethasone, and 5 μg/mL insulin} for 48 h, then cultured in DMEM medium supplemented with 5 μg/mL insulin for 48 h, and then cultured in a medium containing 10% fetal bovine serum for 48 h.
The cells were incubated for a total of 6 days, and the cultures were removed at which point differentiation was complete, followed by Oil Red O staining. The cells were fixed with 35 to 40% formaldehyde for 15 minutes, washed with PBS, and stained with Oil Red O solution for 20 minutes. After completion of staining, the cells were washed four times with PBS, dissolved in isopropanol (2-propanol), and O.D. values were measured at 515 nm.

For the compound `C[C@@]1(C(=O)O)CC[C@]2(C)CC[C@]3(C)C4=CC(=O)c5c(cc(O)c(O)c5C=O)[C@]4(C)CC[C@@]3(C)[C@@H]2C1` [demethylzeylasteral, (2R,4aS,6aR,6aS,14aS,14bR)-9-formyl-10,11-dihydroxy-2,4a,6a,6a,14a-pentamethyl-8-oxo-1,3,4,5,6,13,14,14b-octahydropicene-2-carboxylic acid], in assay [1], the pIC50 (commonly the negative decadic logarithm of the IC50, by convention in mol/L) was 5.93. Further, the “inhibitory effect on intracellular glucocorticoid receptor activity (luminescence)” value in assay [2] is “inhibited intracellular glucocorticoid receptor activity in a concentration-dependent manner”. The “intracellular fat accumulation (Oil Red O, O.D. at 515 nm)” value in assay [3] is reported as “reduction of intracellular fat accumulation in a concentration-dependent manner”.
